# Key:
# [1] = tested on: rabbit serum obtained by immunizing a rabbit with the SARS-CoV strain Frankfurt 1; assay type: binding; parameters: Binding of a rabbit serum to linear peptides / Binding of a rabbit serum to looped peptides / Rabbit serum linear peptides / Rabbit serum looped peptides / Binding of a rabbit serum to linear peptides of protein N of SARS-CoV Urbani (Rabbit serum linear peptides) / Binding of a rabbit serum to looped/cyclic peptides of protein N of SARS-CoV Urbani (Rabbit serum looped peptides): unit not given here
# [2] = tested on: control sera (pooled serum of ten healthy LUMC hospital workers; commercial negative donor pooled serum from the Dutch bloodbank); assay type: binding, human; parameters: Binding of Control serum LUMC to linear peptides / Binding of Control serum Blood-bank to linear peptides / Binding of Control serum LUMC to looped peptides / Binding of Control Serum Blood-Bank to Looped peptides / Binding of Control serum LUMC to linear peptides of the protein M of SARS-CoV Urbani / Binding of Control serum Blood-bank to linear peptides of the protein M of SARS-CoV Urbani / Binding of Control serum LUMC to looped peptides of the protein M of SARS-CoV Urbani / Binding of Control Serum Blood-Bank to Looped peptides of the protein M of SARS-CoV Urbani: unit not given here
Sequence,Rabbit serum linear peptides [1],Rabbit serum looped peptides [1],Binding of Control Serum Blood-Bank to Looped peptides of the protein X3 of SARS-CoV Urbani [2],Binding of Control serum Blood-bank to linear peptides of the protein X3 of SARS-CoV Urbani [2],Binding of Control serum LUMC to linear peptides of the protein X3 of SARS-CoV Urbani [2],Binding of Control serum LUMC to looped peptides of the protein X3 of SARS-CoV Urbani [2],Binding of a rabbit serum to linear peptides [1],Binding of a rabbit serum to looped peptides [1],Binding of Control Serum Blood-Bank to Looped peptides [2],Binding of Control serum Blood-bank to linear peptides [2],Binding of Control serum LUMC to linear peptides [2],Binding of Control serum LUMC to looped peptides [2],Binding of Control Serum Blood-Bank to Looped peptides of the protein M of SARS-CoV Urbani [2],Binding of Control serum Blood-bank to linear peptides of the protein M of SARS-CoV Urbani [2],Binding of Control serum LUMC to linear peptides of the protein M of SARS-CoV Urbani [2],Binding of Control serum LUMC to looped peptides of the protein M of SARS-CoV Urbani [2]
KPLTKKNYSELDDEE,0.4,0.5,0.8,0.7,0.8,0.7,–,–,–,–,–,–,–,–,–,–
GDGISTPKLKEDYQI,–,–,–,–,–,–,0.1,0.5,0.4,0.6,0.5,0.4,–,–,–,–
YSEDRHSGVKDYVVV,–,–,–,–,–,–,0.1,0.4,0.7,0.7,0.6,0.8,–,–,–,–
VYSRVKNLNSSEGVP,–,–,–,–,–,–,0.7,0.0,1.0,0.9,0.6,0.7,–,–,–,–
CQDPAGGALIARCWY,0.5,0.6,–,–,–,–,–,–,0.9,0.7,0.3,0.7,–,–,–,–
IVRQLFKPLTKKNYS,0.4,0.6,0.9,0.9,0.8,0.9,–,–,–,–,–,–,–,–,–,–
YKLGASQRVGTDSGF,0.4,0.2,–,–,–,–,–,–,–,–,–,–,0.7,0.7,0.4,0.9
QIGGYSEDRHSGVKD,–,–,–,–,–,–,0.1,0.5,0.3,0.3,0.5,0.4,–,–,–,–
YCCNIVNVSLVKPTV,–,–,–,–,–,–,0.7,0.3,0.7,0.9,0.6,0.6,–,–,–,–
CCNIVNVSLVKPTVY,–,–,–,–,–,–,0.6,0.0,0.4,0.7,0.5,0.5,–,–,–,–
PLTKKNYSELDDEEP,0.2,0.4,0.8,0.8,0.9,0.8,–,–,–,–,–,–,–,–,–,–
NYSELDDEEPMELDY,0.4,0.3,0.8,0.9,0.9,0.9,–,–,–,–,–,–,–,–,–,–
PFHPLADNKFALTCT,0.4,0.4,–,–,–,–,–,–,0.9,0.7,0.8,0.9,–,–,–,–

# Reference: US20070128217A1 (priority 2003, published 2007)
